# Test results from patent publication US12653807B2, “Modified release formulation for (-)-(3AR,4S,7AR)-4-hydroxy-4-m-tolylethynyl-octahydro-indole-1-carboxylic acid methyl ester” (NOVARTIS AG, priority 2013, dated 2026).
# Read-outs that look alike come from different tables or passages of the source.
# Key:
# [1] = half life of AFQ056 used to set the wash out period; details: human, in vivo, oral; 50 mg and 100 mg doses
# From the text: The study has a 3-Latin, 5-sequences×5-period open-label design that is suitable for comparing the pharmacokinetics including relative bioavailability of three modified release formulations of AFQ056. The immediate release capsule formulation (size O, IR) is used as a reference to enable comparisons with data obtained in previously completed trials. This study design allows the comparison of pharmacokinetic profile of AFQ056 from three modified release (MR) formulations relative to the IR formulation under fasted conditions, and to assess the food effect on the pharmacokinetics of the three MR forms. Latin-square design is selected as it offers maximum precision of comparison across different treatments with minimum number of study subjects. The cross-over design permits investigation of all five treatment conditions within each subject and is used to account for interindividual variability. […] Sampling for 72 hours post dose is considered sufficient for characterizing the PK profiles of all formulations, including the MR forms.
# [2] = test system: L-dopa induced dyskinesias; assay: earlier studies of IR AFQ056 in Parkinson's disease patients; type: in vivo, human; details: IR formulation
# From the text: AFQ056 has previously been formulated as a hard gelatin capsule and as a powder for oral suspension, both with immediate release (IR) properties. […] The IR formulation used in these studies required twice-daily dosing.
# [3] = solubility in water and in ethanol at room temperature; type: physicochemical; details: for solubility: room temperature
# From the text: Particle size distribution is also an important factor influencing the dissolution of a drug substance and is known to influence the drug release from matrix tablets.
# [4] = solubility of AFQ056 at 37° C. in different aqueous media (FIG. 2); type: physicochemical; details: pure aqueous solution with raising ethanol levels
# Description: FIG. 2 graphically depicts the solubility of AFQ056 at 37° C. in different aqueous media. […] Up to the amount of about 20% of ethanol in the solutions, the LDAO (Lauryldimethylamine N-oxide) in water solution and the water-ethanol solution show a different solubility pattern of AFQ056. In the presence of about 40% ethanol in the solutions, both the LDAO in water solution and the water-ethanol solution show a similar solubility for AFQ056.
# The solubility pattern of AFQ056 was examined ([…]). […] In pure aqueous solutions the solubility of AFQ056 steadily increases with raising ethanol concentrations. The solubility pattern of AFQ056 in a LDAO water-ethanol solution is distinct from the solubility pattern of AFQ056 in a pure aqueous solution only up to an amount of 20% ethanol present in the solution. […] Immediate release forms of AFQ056 have therefore the inherent risk of dose dumping and can create severe consequences for the patient if ethanol-containing beverages are consumed in parallel. Particle size distribution is also an important factor influencing the dissolution of a drug substance and is known to influence the drug release from matrix tablets.
# [5] = distribution coefficient Log P of drug substance; type: physicochemical
# Description: AFQ056 is a chiral molecule with 3 asymmetric carbon atoms and has a melting point of about 115° C. One single polymorph has been identified.
# [6] = Roberts et al., cited from earlier work
half-life [1],"solubility ([3]; organic solvent or mixture, ethanol, read-out: Solubility in ethanol)",solubility in organic solvents (in words) ([3]; organic solvents such as ethanol),solubility in water (in words) ([3]; water),"solubility ([3]; water, read-out: Solubility in water)",solubility with raising ethanol levels [4],logP [5],Compound,effect on L-dopa induced dyskinesias ([2]; Parkinson's disease patients),effect on underlying Parkinsonian motor symptoms ([2]; Parkinson's disease patients),most frequent adverse events ([2]; patients),Solubility in ethanol ([6]; ethanol),Solubility in water ([6]; water)
420 to 1020 min,~53 mg/mL,soluble,hardly soluble,~0.02 mg/mL,steadily increasing solubility,4.7,"COC(=O)N1CC[C@@H]2[C@H]1CCC[C@@]2(O)C#Cc1cccc(C)c1 [AFQ056, (−)-(3aR,4S,7aR)-Octahydro-4-hydroxy-4-[(3-methylphenyl)ethynyl]-1H-indole-1-carboxylic acid methyl ester]",reduction in L-dopa induced dyskinesias,without inducing any clinically or statistically significant worsening,"dizziness, dyskinesia, nausea, fatigue, and hallucinations",–,–
–,–,–,–,–,–,–,CC(=O)Oc1ccccc1C(=O)O [Aspirin],–,–,–,about 237 mg/ml,8.4 mg/mL
